# Read-outs that look alike come from different tables or passages of the source.
# What was measured:
# HIV-1 RT (WT) = HIV-1 RT (WT) (Human immunodeficiency virus type 1 group M subtype B, UniProt P03366); assay: biochemical; conditions: IC50, anti-HIV-1 RT (WT) activity
# Protocol: The reaction mixture (50 μl) contained 50 mM Tris.HCl, pH 7.8, 5 mM dithiothreitol, […] glutathione, 500 μM EDTA, 150 mM KCl, 5 mM MgCl2, 1.25 μg of bovine serum albumin, a fixed concentration of the labeled substrate [2,8-^3 H]dGTP (2.95 μM, 2 μCi), a fixed concentration of the template/primer poly(C).oligo(dG) (0.1 mM), 0.06% Triton X-100, 5 μl of inhibitor solution [containing various concentrations (5-fold dilutions) of the test compounds], and 5 μl of the RT preparation. The reaction mixtures were incubated at 37° C. for 30 min, at which time 100 μl of calf thymus DNA (150 μg/ml), 2 ml of Na4 P2 07 (0.1 M in 1M HCl), and 2 ml of trichloroacetic acid (10%, v/v) were added. The solutions were kept on ice for 30 min, after which the acid-insoluble material was washed and analyzed for radioactivity.
# Compounds I, III, IV and V were evaluated for their inhibitory effect on recombinant HIV-1 RT.
# [1] = system: HIV-1/TIBO R82150 (100-Ile); conditions: background, Balzarini I/II; cited from earlier work
# HIV-1(IIIB) (WT) = assay: microbe, parasite or virus in culture; type: cell-based; conditions: Human immunodeficiency virus 1, IIIB, CCRF-CEM
# Protocol: (§1) CEM cells were suspended at 250,000 cells per ml of culture medium and infected with wild-type HIV-I(IIIB) or mutant HIV-1 strains at 100 50% cell culture infective doses per ml. Then 100 μl of the infected cell suspensions was added to 200-μl microtiter plate wells containing 100 μl of an appropriate dilution of the test compounds. After 4 days incubation at 37° C., the cell cultures were examined for syncytium formation.
# [2] = system: HIV-1/TIBO R82150 (100-Ile); assay: Sensitivity of mutant HIV-1 strain in CEM cell cultures; type: cell-based; conditions: CEM cells, Table 1
# Protocol: as §1
# HIV-1/V(0.5) 103-Asn = assay: as above; type: cell-based; conditions: Table 5
# Protocol: as §1
# HIV-1/II(0.1) 100-Ile = assay: as above; type: cell-based; conditions: Table 5
# Protocol: as §1
# [3] = system: HIV-1/V(0.1) 101-Ile + 141-Glu; assay: as above; type: cell-based; conditions: Table 5
# Protocol: as §1
# HIV-1/I(0.1) 103-Asn = assay: as above; type: cell-based; conditions: Table 5
# Protocol: as §1
# [4] = system: HIV-1/TIBO R82913 (103-Asn); assay: as above; type: cell-based; conditions: CEM cells, Table 1
# Protocol: as §1
# [5] = system: HIV-1/TSAO-m^3 T (138-Lys); assay: as above; type: cell-based; conditions: CEM cells, Table 1
# Protocol: as §1
# HIV-1/B 101Glu = assay: as above; type: cell-based; conditions: Table 5
# Protocol: as §1
# HIV-1/Pyr (181-Cys) = assay: as above; type: cell-based; conditions: CEM cells, Table 1
# Protocol: as §1
# HIV-1/Nev (106-Ala) = assay: as above; type: cell-based; conditions: CEM cells, Table 1
# Protocol: as §1
# HIV-1/III(0.1) 103-Asn = assay: as above; type: cell-based; conditions: Table 5
# Protocol: as §1
# HIV-1(IIIB) = assay: Knock-out concentrations: breakthrough of HIV-1(IIIB)-induced cytopathicity in CEM cell cultures; type: cell-based
# Protocol: The culture medium consisted of RPMI 1640 containing 10% fetal bovine serum, 2 mM L-glutamine, and 0.075% NaHCO3. The multiplicity of the initial infection was ~1000 times the CCID50 (50% cell culture infective dose). Passages were performed every 3 to 4 days by adding 0.5 to 1.0 ml of the infected culture supernatant to 5 ml of a suspension containing 4×10^5 uninfected CEM cells per ml. Syncytium formation was used as a parameter of virus breakthrough in the cell cultures. In the drug combination experiments, the compounds were combined at the same initial concentrations as used for the two lowest concentrations in the single-drug experiments.
# The drug concentrations were kept constant throughout the whole time period of the experiment (10 subcultivations or 35 days). Then the drugs were removed from the cell cultures, and the cells were further subcultured for at least 5 additional passages.
# HIV-1/IV(0.1) 103-Thr = assay: Sensitivity of mutant HIV-1 strain in CEM cell cultures; type: cell-based; conditions: Table 5
# Protocol: as §1
# [6] = CEM cells, Table 1, read-out: 50% Effective Concentration
# [7] = HIV-1 (III8), Table 5, read-out: EC50
# [8] = Human immunodeficiency virus 1, CCRF-CEM, read-out: 50% Effective Concentration
# [9] = Human immunodeficiency virus 1, CCRF-CEM, read-out: EC50
compound,measurement,setting,value
"CC(C)=CCN1Cc2cc(Cl)cc3[nH]c(=S)n(c23)C[C@@H]1C [TIBO R82913, reference compound]",IC50,HIV-1 RT (WT),2.05 µM
same,resistance of HIV-1 strains containing the 100 Leu→Ile mutation in their RT,[1],resistant
same,EC50,HIV-1(IIIB) (WT); [6],0.016 µg/mL
same,EC50,HIV-1(IIIB) (WT); [7],0.02 µg/mL
same,EC50,[2]; [8],1.75 µg/mL
same,EC50,HIV-1/V(0.5) 103-Asn; [9],5 µg/mL
same,EC50,HIV-1/II(0.1) 100-Ile; [9],≥ 5 µg/mL
same,EC50,[3]; [9],0.16 µg/mL
same,EC50,HIV-1/I(0.1) 103-Asn; [9],1.1 µg/mL
same,EC50,[4]; [8],4.3 µg/mL
same,EC50,[5]; [8],0.3 µg/mL
same,EC50,HIV-1/B 101Glu; [9],> 2.5 µg/mL
same,EC50,HIV-1/Pyr (181-Cys); [8],2 µg/mL
same,EC50,HIV-1/Nev (106-Ala); [8],0.5 µg/mL
same,EC50,HIV-1/III(0.1) 103-Asn; [9],0.23 µg/mL
"Cc1ccnc2c1NC(=O)c1cccnc1N2C1CC1 [Nevirapine, reference compound]",HIV-1-induced cytopathicity in cell culture,"HIV-1(IIIB); 0.1 μg/ml, day 4 post infection",37.5 percentage of control
same,HIV-1-induced cytopathicity in cell culture,"HIV-1(IIIB); 0.1 μg/ml, day 8 post infection",87.5 percentage of control
same,HIV-1-induced cytopathicity in cell culture,"HIV-1(IIIB); 0.1 μg/ml, day 11 post infection",100 percentage of control
same,HIV-1-induced cytopathicity in cell culture,"HIV-1(IIIB); 0.1 μg/ml, day 14 post infection",100 percentage of control
same,HIV-1-induced cytopathicity in cell culture,"HIV-1(IIIB); 0.1 μg/ml, day 17 post infection",100 percentage of control
same,HIV-1-induced cytopathicity in cell culture,"HIV-1(IIIB); 0.1 μg/ml, day 21 post infection",100 percentage of control
same,HIV-1-induced cytopathicity in cell culture,"HIV-1(IIIB); 0.1 μg/ml, day 25 post infection",100 percentage of control
same,HIV-1-induced cytopathicity in cell culture,"HIV-1(IIIB); 0.1 μg/ml, day 28 post infection",100 percentage of control
same,HIV-1-induced cytopathicity in cell culture,"HIV-1(IIIB); 0.1 μg/ml, day 32 post infection",100 percentage of control
same,HIV-1-induced cytopathicity in cell culture,"HIV-1(IIIB); 0.1 μg/ml, day 35 post infection",100 percentage of control
same,HIV-1-induced cytopathicity in cell culture,"HIV-1(IIIB); 0.1 μg/ml, day 39 post infection, compound absent from day 35",100 percentage of control
same,HIV-1-induced cytopathicity in cell culture,"HIV-1(IIIB); 0.1 μg/ml, day 42 post infection, compound absent from day 35",100 percentage of control
same,HIV-1-induced cytopathicity in cell culture,"HIV-1(IIIB); 0.1 μg/ml, day 46 post infection, compound absent from day 35",100 percentage of control
same,HIV-1-induced cytopathicity in cell culture,"HIV-1(IIIB); 0.1 μg/ml, day 49 post infection, compound absent from day 35",100 percentage of control
same,HIV-1-induced cytopathicity in cell culture,"HIV-1(IIIB); 0.1 μg/ml, day 53 post infection, compound absent from day 35",100 percentage of control
same,HIV-1-induced cytopathicity in cell culture,"HIV-1(IIIB); 0.5 μg/ml, day 4 post infection",6.25 percentage of control
same,HIV-1-induced cytopathicity in cell culture,"HIV-1(IIIB); 0.5 μg/ml, day 8 post infection",25 percentage of control
same,HIV-1-induced cytopathicity in cell culture,"HIV-1(IIIB); 0.5 μg/ml, day 11 post infection",50 percentage of control
same,HIV-1-induced cytopathicity in cell culture,"HIV-1(IIIB); 0.5 μg/ml, day 14 post infection",100 percentage of control
same,HIV-1-induced cytopathicity in cell culture,"HIV-1(IIIB); 0.5 μg/ml, day 17 post infection",100 percentage of control
same,HIV-1-induced cytopathicity in cell culture,"HIV-1(IIIB); 0.5 μg/ml, day 21 post infection",100 percentage of control
same,HIV-1-induced cytopathicity in cell culture,"HIV-1(IIIB); 0.5 μg/ml, day 25 post infection",100 percentage of control
same,HIV-1-induced cytopathicity in cell culture,"HIV-1(IIIB); 0.5 μg/ml, day 28 post infection",100 percentage of control
same,HIV-1-induced cytopathicity in cell culture,"HIV-1(IIIB); 0.5 μg/ml, day 32 post infection",100 percentage of control
same,HIV-1-induced cytopathicity in cell culture,"HIV-1(IIIB); 0.5 μg/ml, day 35 post infection",100 percentage of control
same,HIV-1-induced cytopathicity in cell culture,"HIV-1(IIIB); 0.5 μg/ml, day 39 post infection, compound absent from day 35",100 percentage of control
same,HIV-1-induced cytopathicity in cell culture,"HIV-1(IIIB); 0.5 μg/ml, day 42 post infection, compound absent from day 35",100 percentage of control
same,HIV-1-induced cytopathicity in cell culture,"HIV-1(IIIB); 0.5 μg/ml, day 46 post infection, compound absent from day 35",100 percentage of control
same,HIV-1-induced cytopathicity in cell culture,"HIV-1(IIIB); 0.5 μg/ml, day 49 post infection, compound absent from day 35",100 percentage of control
same,HIV-1-induced cytopathicity in cell culture,"HIV-1(IIIB); 0.5 μg/ml, day 53 post infection, compound absent from day 35",100 percentage of control
same,HIV-1-induced cytopathicity in cell culture,"HIV-1(IIIB); 2.5 μg/ml, day 4 post infection",0 percentage of control
same,HIV-1-induced cytopathicity in cell culture,"HIV-1(IIIB); 2.5 μg/ml, day 8 post infection",0 percentage of control
same,HIV-1-induced cytopathicity in cell culture,"HIV-1(IIIB); 2.5 μg/ml, day 11 post infection",6.25 percentage of control
same,HIV-1-induced cytopathicity in cell culture,"HIV-1(IIIB); 2.5 μg/ml, day 14 post infection",25 percentage of control
same,HIV-1-induced cytopathicity in cell culture,"HIV-1(IIIB); 2.5 μg/ml, day 17 post infection",62.5 percentage of control
same,HIV-1-induced cytopathicity in cell culture,"HIV-1(IIIB); 2.5 μg/ml, day 21 post infection",100 percentage of control
same,HIV-1-induced cytopathicity in cell culture,"HIV-1(IIIB); 2.5 μg/ml, day 25 post infection",100 percentage of control
same,HIV-1-induced cytopathicity in cell culture,"HIV-1(IIIB); 2.5 μg/ml, day 28 post infection",100 percentage of control
same,HIV-1-induced cytopathicity in cell culture,"HIV-1(IIIB); 2.5 μg/ml, day 32 post infection",100 percentage of control
same,HIV-1-induced cytopathicity in cell culture,"HIV-1(IIIB); 2.5 μg/ml, day 35 post infection",100 percentage of control
same,HIV-1-induced cytopathicity in cell culture,"HIV-1(IIIB); 2.5 μg/ml, day 39 post infection, compound absent from day 35",100 percentage of control
same,HIV-1-induced cytopathicity in cell culture,"HIV-1(IIIB); 2.5 μg/ml, day 42 post infection, compound absent from day 35",100 percentage of control
same,HIV-1-induced cytopathicity in cell culture,"HIV-1(IIIB); 2.5 μg/ml, day 46 post infection, compound absent from day 35",100 percentage of control
same,HIV-1-induced cytopathicity in cell culture,"HIV-1(IIIB); 2.5 μg/ml, day 49 post infection, compound absent from day 35",100 percentage of control
same,HIV-1-induced cytopathicity in cell culture,"HIV-1(IIIB); 2.5 μg/ml, day 53 post infection, compound absent from day 35",100 percentage of control
same,EC50,HIV-1(IIIB) (WT); [6],0.007 µg/mL
same,EC50,HIV-1(IIIB) (WT); [7],0.007 µg/mL
same,50% Effective Concentration,[2],0.100 µg/mL
same,EC50,HIV-1/V(0.5) 103-Asn,≥ 5 µg/mL
same,EC50,HIV-1/II(0.1) 100-Ile,≥ 5 µg/mL
same,EC50,[3],0.24 µg/mL
same,EC50,HIV-1/I(0.1) 103-Asn,1.7 µg/mL
same,50% Effective Concentration,[4],1.5 µg/mL
same,50% Effective Concentration,[5],0.030 µg/mL
same,EC50,HIV-1/B 101Glu,> 2.5 µg/mL
same,50% Effective Concentration,HIV-1/Pyr (181-Cys),2.30 µg/mL
same,50% Effective Concentration,HIV-1/Nev (106-Ala),2.3 µg/mL
same,EC50,HIV-1/III(0.1) 103-Asn,0.38 µg/mL
same,EC50,HIV-1/IV(0.1) 103-Thr,2.7 µg/mL

# — patent US5968910A, “Compositions containing two or three inhibitors of different HIV reverse transcriptases” (priority 1994, dated 1999)
